In patent US20060122185A1, “Bicyclic inhibitors of Rho kinase” (priority 2004, published 2006):

Legend:
[1] = biological target: ROCK (Homo sapiens, UniProt Q13464); experiment: ROCK radioactive enzyme assay (33P); type: biochemical; settings: 13 μM [γ-33P] ATP, 27 μM MBP, 5 nM ROCK, room temperature
Method: Compounds are screened for their ability to inhibit ROCK using a standard radioactive enzyme assay. Assays are carried out in a solution containing 100 mM HEPES (pH 7.5), 10 mM MgCl2, 25 mM NaCl, 2 mM DTT and 1.5% DMSO. Final substrate concentrations in the assay are 13 μM [γ-^33P] ATP (25 mCi ^33P ATP/mmol ATP, Perkin Elmer, Cambridge, Mass./Sigma Chemicals, St Louis, Mo.) and 27 μM Myelin Basic Protein (MBP). Final enzyme concentration in the assay is 5 nM ROCK. Assays are carried out at room temperature. 1.5 μl of DMSO stock containing serial dilutions of the compound of the present invention (concentrations ranging from 10 μM to 2.6 nM) is placed in a 96 well plate. 50 μl of Solution 1 (100 mM HEPES (pH 7.5), 10 mM MgCl2, […] [γ-^33P] ATP) is added to the plate. The reaction is initiated by addition of 50 μl of Solution 2 (100 mM HEPES (pH 7.5), 10 mM MgCl2, 4 mM DTT, […] and 10 nM ROCK). After 2 hours the reaction is quenched with 50 μL of 30% trichloroacetic acid (TCA, Fisher) containing 9 mM ATP. Transfer of 140 μL of the quenched reaction to a glass fiber filter plate (Corning, Cat. No. 3511) is followed by washing 3 times with 5% TCA. 50 μL of Optima Gold scintillation fluid (Perkin Elmer) is added and the plates are counted on a Top Count (Perkin Elmer). After removing mean background values for all of the data points the data is fit using Prism software to obtain a Ki(app).
(§1) Table 3 depicts enzyme inhibition data (Ki) for certain exemplary compounds. Compound numbers in Table 3 correspond to those compounds depicted in Table 1.

[2] = biological target: ROCK I (AA 6-553) (Homo sapiens, UniProt Q13464); experiment: ROCK I coupled enzyme assay (enzyme-linked); type: biochemical; settings: 45 μM ATP, 200 μM peptide, 45 nM ROCK I, 30° C.
ROCK I (AA 6-553), sequence (Q13464 6-553): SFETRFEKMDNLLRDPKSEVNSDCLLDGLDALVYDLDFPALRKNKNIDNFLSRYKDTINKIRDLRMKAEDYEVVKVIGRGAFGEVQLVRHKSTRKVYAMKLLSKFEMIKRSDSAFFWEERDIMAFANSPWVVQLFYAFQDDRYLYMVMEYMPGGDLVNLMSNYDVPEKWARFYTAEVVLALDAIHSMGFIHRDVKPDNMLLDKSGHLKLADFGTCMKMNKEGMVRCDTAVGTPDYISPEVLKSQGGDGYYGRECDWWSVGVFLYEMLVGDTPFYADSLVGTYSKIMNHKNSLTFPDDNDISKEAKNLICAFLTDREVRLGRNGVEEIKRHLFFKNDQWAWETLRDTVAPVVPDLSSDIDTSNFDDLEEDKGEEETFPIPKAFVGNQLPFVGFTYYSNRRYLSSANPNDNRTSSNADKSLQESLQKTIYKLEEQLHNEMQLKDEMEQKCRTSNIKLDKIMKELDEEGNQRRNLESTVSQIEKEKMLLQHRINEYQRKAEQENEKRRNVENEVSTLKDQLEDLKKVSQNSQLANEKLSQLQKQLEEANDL
Method: Compounds are screened for their ability to inhibit ROCK I (AA 6-553) activity using a standard coupled enzyme system (Fox et al. Protein Sci. 7: 2249, 1998). Reactions are carried out in a solution containing 100 mM HEPES (pH 7.5), 10 mM MgCl2, 25 mM NaCl, 2 mM DTT and 1.5% DMSO. Final substrate concentrations in the assay are 45 μM ATP (Sigma Chemicals, St Louis, Mo.) and 200 μM peptide (American Peptide, Sunnyvale, Calif.). Reactions are carried out at 30° C. and 45 nM ROCK I. Final concentrations of the components of the coupled enzyme system are 2.5 mM phosphoenolpyruvate, 350 μM NADH, 30 μg/ml pyruvate kinase and 10 μg/ml lactate dehydrogenase.
as §1

ROCK, sequence (Q13464 6-553): as above

SMILES | Ki [1] | Ki [2]
CC(CO)NC(=O)c1cc(-c2n[nH]c3ncccc23)c[nH]1 (stereo not shown) [Compound 12] | 500 to 5000 nM | –
CS(=O)(=O)Nc1cccc(CC(=O)Nc2cc(-c3n[nH]c4nccnc34)cs2)c1 [Compound 20] | < 500 nM | –
CS(=O)(=O)Nc1ccc(F)c(CC(=O)Nc2cc(-c3n[nH]c4nccnc34)cs2)c1 [Compound 9, N-(4-(1H-pyrazolo[3,4-b]pyrazin-3-yl)thiophen-2-yl)-2-(5-methsulfonamido-2-fluorophenyl)acetamide] | < 500 nM | –
O=C(NCc1ccc(F)cc1)c1cc(-c2n[nH]c3ncccc23)c[nH]1 [Compound 18] | < 500 nM | –
O=C(NCC1CCCCC1)c1cc(-c2n[nH]c3ncccc23)c[nH]1 [Compound 17] | < 500 nM | –
CCN(CC)S(=O)(=O)c1cccc(CC(=O)Nc2nc(-c3n[nH]c4ncccc34)cs2)c1 [Compound 4] | < 500 nM | –
O=C(NCc1ccc2c(c1)OCO2)c1cc(-c2n[nH]c3ncccc23)c[nH]1 [Compound 15] | < 500 nM | –
CN(C)S(=O)(=O)c1cccc(CC(=O)Nc2cc(-c3n[nH]c4ncccc34)cs2)c1 [Compound 10, 2-(3-Dimethylsulfamoyl-phenyl)-N-[4-(1H-pyrazolo[3,4-b]pyridin-3-yl)-thiophen-2-yl]-acetamide] | < 500 nM | –
O=C(N[C@H](CO)c1ccccc1)c1cc(-c2n[nH]c3ncccc23)c[nH]1 [Compound 1] | – | < 500 nM

Results, then the molecule that gave them:

Ki [1] | Ki [2] | SMILES
< 500 nM | – | CS(=O)(=O)Nc1ccc(F)c(CC(=O)Nc2cc(-c3n[nH]c4ncccc34)cs2)c1 [Compound 6, 2-(2-Fluoro-5-methanesulfonylamino-phenyl)-N-[4-(1H-pyrazolo[3,4-b]pyridin-3-yl)-thiophen-2-yl]-acetamide]
< 500 nM | – | O=C(NCc1cccc(OC(F)(F)F)c1)c1cc(-c2n[nH]c3ncccc23)c[nH]1 [Compound 14]
< 500 nM | – | O=C(NCc1cccc(F)c1)c1cc(-c2n[nH]c3ncccc23)c[nH]1 [Compound 16]
< 500 nM | – | COc1cccc(CNC(=O)c2cc(-c3n[nH]c4ncccc34)c[nH]2)c1 [Compound 13]
< 500 nM | – | CS(=O)(=O)Nc1cccc(CC(=O)Nc2nc(-c3n[nH]c4ncccc34)cs2)c1 [Compound 5]
< 500 nM | – | O=C(Cc1cccc(OCCCC2CCNCC2)c1)Nc1cc(-c2n[nH]c3ncccc23)cs1 [Compound 7, 2-(3-(3-Piperidin-4-yl-propoxy)-phenyl)-N-[4-(1H-pyrazolo[3,4-b]pyridin-3-yl)-thiophen-2-yl]-acetamide]
< 500 nM | – | O=C(Cc1ccccc1)Nc1nc(-c2n[nH]c3ncccc23)cs1 [Compound 2]
< 500 nM | – | COc1cccc(CC(=O)Nc2nc(-c3n[nH]c4ncccc34)cs2)c1 [Compound 3]
< 500 nM | – | CS(=O)(=O)Nc1cccc(CNC(=O)c2cc(-c3n[nH]c4ncccc34)c[nH]2)c1 [Compound 11]
< 500 nM | – | CS(=O)(=O)Nc1cccc(CC(=O)Nc2cc(-c3n[nH]c4ncccc34)cs2)c1 [Compound 8, 2-(3-Methanesulfonylamino-phenyl)-N-[4-(1H-pyrazolo[3,4-b]pyridin-3-yl)-thiophen-2-yl]-acetamide]
